Results taken from patent US20080193397A1, “Use of Peroxide Decomposers Method For the Treatment of a Material Other Than the Human Body” (BASF Aktiengesellscaft, priority 2005, published 2008).

Test: Squalene degradation test with free-radical initiator V65 (protective factor QS, synergy with tocopherol)
Design: key to QS: QS = degradation rate without stabilizer / degradation rate with it
Conditions: squalene content by GC; for QS: 250 ppm test substance in 2% azobis(2,4-dimethylvaleronitrile) in squalene, stored open 30 days at 40° C., QSx=degradation rate0/degradation ratex; for QS + 250 ppm Tocopherol: 250 ppm test substance plus 250 ppm tocopherol in 2% azobis(2,4-dimethylvaleronitrile) in squalene, 30 days at 40° C.
Method: General procedure for determining the synergistic effect of peroxide decomposers used according to the invention with tocopherol
3 ml of a 2% strength solution of azobis(2,4.dimethylvaleronitrile). (V65, Wako Chemical Co.) in squalene are poured together with 250 ppm of test substance (based on the squalene solution) into Fiolax test tubes ([…]) and thoroughly mixed using a laboratory shaker. The samples are then stored open in a circulatory drying cabinet for 30 days at 40° C. At intervals of 7 days, the squalene content of the samples is ascertained using gas chromatography. The reference used is a sample without the […]. The data points are documented in an XY graph and the effectiveness of the test substances is determined by reference to the slope of the decomposition curves in comparison to the reference sample.
A measure of the protective effect of a test compound is the factor QS, which is a measure of how much a stabilizer reduces the degradation rate. QSx=degradation rate0/degradation ratex

| Compound | QS | QS + 250 ppm Tocopherol |
| --- | --- | --- |
| Sc1nccs1 [compound 3] | 2.75 | 4.25 |
| S=c1cc[nH]c(=S)[nH]1 [compound 4] | 1.13 | 2.08 |
| CCCc1cc(O)nc(S)n1 [compound 5] | 2.58 | 4.44 |
| S=C1CSc2ccccc2N1 [compound 6] | 3.03 | 3.75 |
| On1ccccc1=S [compound 7] | 1.47 | 2.58 |
| Sc1nnc(-c2ccccc2)[nH]1 [compound 8] | 1.34 | 1.8 |
| Oc1cccnc1S [compound 9] | 1.66 | 2.25 |
| O=C(O)c1cccnc1S [compound 10] | 1.18 | 1.65 |
| Tocopherol [reference compound] | 1.3 | – |
